According to ChEMBL document CHEMBL6153025, “Multidrug-resistant bacteria quorum-sensing inhibitors: A particular focus on Pseudomonasaeruginosa” (Eur J Med Chem, 2025):
Converted amounts (≈) assume the structure as drawn.

How the values were obtained:
[1] = biological target: T1, Transcriptional activator protein LasR (Pseudomonas aeruginosa (strain ATCC 15692 / PAO1 / 1C / PRS 101 / LMG12228)) (UniProt P25084); test: Inhibition of LasR-mediated quorum sensing system in Pseudomonas aeruginosa PAO1 at 128 ug/ml relative to control; details: dose 128.0 µg/ml
T1 sequence (whole entry): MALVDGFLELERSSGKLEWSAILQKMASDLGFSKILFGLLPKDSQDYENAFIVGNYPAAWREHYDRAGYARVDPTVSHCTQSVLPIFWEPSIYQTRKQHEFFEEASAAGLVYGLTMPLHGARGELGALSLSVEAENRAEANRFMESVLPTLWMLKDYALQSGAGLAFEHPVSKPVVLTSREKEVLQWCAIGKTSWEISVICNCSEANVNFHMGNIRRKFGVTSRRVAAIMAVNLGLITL

[2] = Inhibition of quorum sensing system in Pseudomonas aeruginosa PA14 assessed as inhibition of pyocyanin production at 128 ug/ml relative to control; details: dose 128.0 µg/ml
Pseudomonas aeruginosa [3] = test: Antibiofilm activity against Pseudomonas aeruginosa PA14 assessed as inhibition of biofilm formation at 16 ug/ml incubated for 24 hrs by microscopic analysis relative to control; assay type: functional; set-up: scale not given: the % may be the effect or the level left; details: dose 16 µg/ml
Pseudomonas aeruginosa [4] = test: Antibacterial activity against Pseudomonas aeruginosa PAO1 assessed as bacterial growth inhibition measured after 18 hrs by CLSI protocol based two-fold serial microdilution method; assay type: functional
Pseudomonas aeruginosa [5] = test: Antivirulence activity against Pseudomonas aeruginosa PAO1 assessed as inhibition of pyocyanin production at 25 ug/ml incubated for 16 hrs under agitation by photometric analysis relative to control; assay type: functional; set-up: scale not given: the % may be the effect or the level left; details: dose 25 µg/ml
Pseudomonas aeruginosa [6] = test: Antivirulence activity against Pseudomonas aeruginosa PAO1 assessed as inhibition of pyocyanin production at 16 ug/ml relative to control; assay type: functional; set-up: scale not given: the % may be the effect or the level left; details: dose 16 µg/ml
Pseudomonas aeruginosa [7] = test: Anti-virulence effect in Pseudomonas aeruginosa PAO1 assessed as inhibition of rhamnolipid production at 10 uM relative to control; assay type: functional; set-up: scale not given: the % may be the effect or the level left
Pseudomonas aeruginosa [8] = test: Antibacterial activity against Pseudomonas aeruginosa PAO1 assessed as bacterial growth inhibition after 24 hrs by liquid microdilution method; assay type: functional
Pseudomonas aeruginosa [9] = test: Downregulation of lasI mRNA expression in Pseudomonas aeruginosa PAO1 at 16 ug/ml relative to control; assay type: functional; details: dose 16 µg/ml
Pseudomonas aeruginosa [10] = test: Downregulation of rhlR mRNA expression in Pseudomonas aeruginosa PAO1 at 160 ug/ml incubated for 6 hrs by RT-qPCR analysis relative to control; assay type: functional; details: dose 160 µg/ml
Pseudomonas aeruginosa [11] = test: Downregulation of lasR mRNA expression in Pseudomonas aeruginosa PAO1 at 16 ug/ml relative to control; assay type: functional; details: dose 16 µg/ml
Pseudomonas aeruginosa [12] = test: Downregulation of lasB mRNA expression in Pseudomonas aeruginosa PAO1 at 160 ug/ml incubated for 6 hrs by RT-qPCR analysis relative to control; assay type: functional; details: dose 160 µg/ml
Pseudomonas aeruginosa [13] = test: Antibiofilm activity against Pseudomonas aeruginosa PAO1 assessed as inhibition of biofilm formation incubated for 24 hrs by crystal violet staining based assay; assay type: functional, organism-based; details: PAO1, 24 h
Pseudomonas aeruginosa [14] = test: Downregulation of lasA mRNA expression in Pseudomonas aeruginosa PAO1 at 160 ug/ml incubated for 6 hrs by RT-qPCR analysis relative to control; assay type: functional; details: dose 160 µg/ml
Pseudomonas aeruginosa [15] = test: Downregulation of rhlI mRNA expression in Pseudomonas aeruginosa PAO1 at 160 ug/ml incubated for 6 hrs by RT-qPCR analysis relative to control; assay type: functional; details: dose 160 µg/ml
Pseudomonas aeruginosa [16] = test: Anti-virulence effect in Pseudomonas aeruginosa PAO1 assessed as inhibition of rhamnolipid production at 250 ug/ml relative to control; assay type: functional; set-up: scale not given: the % may be the effect or the level left; details: dose 250 µg/ml
Pseudomonas aeruginosa [17] = test: Anti-virulence effect in Pseudomonas aeruginosa PAO1 assessed as inhibition of pyocyanin production at 250 ug/ml relative to control; assay type: functional; set-up: scale not given: the % may be the effect or the level left; details: dose 250 µg/ml
Pseudomonas aeruginosa [18] = test: Antibiofilm activity against Pseudomonas aeruginosa PAO1 assessed as inhibition of biofilm formation at 250 ug/ml incubated for 24 hrs by crystal violet staining based assay relative to control; assay type: functional; set-up: scale not given: the % may be the effect or the level left; details: dose 250 µg/ml
Pseudomonas aeruginosa [19] = test: Antibiofilm activity against Pseudomonas aeruginosa PAO1 assessed as reduction in biofilm formation at 16 ug/ml incubated for 2 to 4 hrs by crystal violet staining based analysis relative to control; assay type: functional; set-up: scale not given: the % may be the effect or the level left; details: dose 16 µg/ml; time 2-4 hrs
Pseudomonas aeruginosa [20] = test: Antibiofilm activity against Pseudomonas aeruginosa PA14 assessed as reduction in biofilm formation at 16 ug/ml incubated for 2 to 4 hrs by crystal violet staining based analysis relative to control; assay type: functional; set-up: scale not given: the % may be the effect or the level left; details: dose 16 µg/ml; time 2-4 hrs
[21] = Inhibition of quorum sensing system in Pseudomonas aeruginosa PAO1 expressing lasB-gfp at 16 uM relative to control
Pseudomonas aeruginosa [22] = test: Anti-virulence activity in Pseudomonas aeruginosa PAO1 assessed as reduction in elastase production; assay type: functional, organism-based
Pseudomonas aeruginosa [23] = test: Inhibition of pyocyanin production in Pseudomonas aeruginosa PAO1; assay type: functional, organism-based
Pseudomonas aeruginosa [24] = test: Antibiofilm activity against Pseudomonas aeruginosa ATCC 27853 assessed as reduction in biofilm biomass at 16 ug/ml relative to control; assay type: functional; set-up: scale not given: the % may be the effect or the level left; details: dose 16 µg/ml
[25] = Inhibition of quorum sensing system in Pseudomonas aeruginosa PAO1 expressing lasB-gfp
Pseudomonas aeruginosa [26] = test: Inhibition of rhamnolipid production in Pseudomonas aeruginosa PAO1; assay type: functional, organism-based
Pseudomonas aeruginosa [27] = test: Antibiofilm activity against Pseudomonas aeruginosa PAO1 assessed as inhibition of biofilm formation at 32 ug/ml incubated for 8 hrs by crystal violet staining based assay relative to control; assay type: functional; set-up: scale not given: the % may be the effect or the level left; details: dose 32 µg/ml
[28] = Inhibition of quorum sensing system in Pseudomonas aeruginosa PAO1 expressing lasB-gfp assessed as reduction fluorescence intensity measured for 12 hrs by GFP reporter strain assay
Pseudomonas aeruginosa [29] = test: Antibiofilm activity against Pseudomonas aeruginosa ATCC 27853 assessed as inhibition of biofilm formation at 8 microg/ml incubated for 24 hrs by crystal violet staining based analysis relative to control; assay type: functional; set-up: scale not given: the % may be the effect or the level left; details: dose 8 µg/ml
Pseudomonas aeruginosa [30] = test: Antibiofilm activity against Pseudomonas aeruginosa PA14 assessed as reduction in biofilm formation; assay type: functional
Pseudomonas aeruginosa [31] = test: Antibiofilm activity against Pseudomonas aeruginosa PAO1 assessed as inhibition of biofilm formation at 100 uM relative to control; assay type: functional; set-up: scale not given: the % may be the effect or the level left
[32] = Inhibition of quorum sensing system in Pseudomonas aeruginosa PAO1 expressing lasB-gfp at 10 uM relative to control
Pseudomonas aeruginosa [33] = test: Antibiofilm activity against Pseudomonas aeruginosa PAO1 assessed as inhibition of biofilm formation at 16 ug/ml incubated for 24 hrs by crystal violet staining based assay relative to control; assay type: functional; set-up: scale not given: the % may be the effect or the level left; details: dose 16 µg/ml
Pseudomonas aeruginosa [34] = test: Antibacterial activity against Pseudomonas aeruginosa PAO1 by broth microdilution method; assay type: functional
Pseudomonas aeruginosa [35] = test: Antivirulence activity against Pseudomonas aeruginosa PAO1 assessed as inhibition of rhamnolipid production at 16 ug/ml relative to control; assay type: functional; set-up: scale not given: the % may be the effect or the level left; details: dose 16 µg/ml
Pseudomonas aeruginosa [36] = test: Downregulation of lasB mRNA level in Pseudomonas aeruginosa PAO1; assay type: functional
Pseudomonas aeruginosa [37] = test: Downregulation of lasR mRNA expression in Pseudomonas aeruginosa PAO1; assay type: functional
[38] = Inhibition of quorum sensing system in Pseudomonas aeruginosa PAO1-pqsA-gfp assessed as reduction in fluorescence intensity incubated for 12 hrs by GFP reporter strain assay
Pseudomonas aeruginosa [39] = test: Antibiofilm activity against logarithmic growth phase Pseudomonas aeruginosa PAO1 assessed as inhibition of biofilm formation incubated for 20 hrs by crystal violet staining based analysis; assay type: functional, organism-based; details: PAO1, 20 h
Pseudomonas aeruginosa [40] = test: Downregulation of rhlA mRNA level in Pseudomonas aeruginosa PAO1 at 32 ug/ml relative to control; assay type: functional; details: dose 32 µg/ml
Pseudomonas aeruginosa [41] = test: Antivirulence activity against Pseudomonas aeruginosa PAO1 assessed as reduction in pyocyanin level at 10 uM relative to control; assay type: functional; set-up: scale not given: the % may be the effect or the level left
[42] = Inhibition of quorum sensing system in Pseudomonas aeruginosa PAO1- rhlA-gfp assessed as reduction in fluorescence intensity measured for 12 hrs by GFP reporter strain assay
Pseudomonas aeruginosa [43] = test: Antivirulence activity in Pseudomonas aeruginosa PAO1 assessed as reduction in elastase production at 10 uM relative to control; assay type: functional; set-up: scale not given: the % may be the effect or the level left
Pseudomonas aeruginosa [44] = test: Downregulation of rhlR mRNA expression level in Pseudomonas aeruginosa PAO1 at 200 uM by RT-PCR analysis relative to control; assay type: functional
Pseudomonas aeruginosa [45] = test: Downregulation of rhlI mRNA expression level in Pseudomonas aeruginosa PAO1 at 200 uM by RT-PCR analysis relative to control; assay type: functional
Pseudomonas aeruginosa [46] = test: Antibiofilm activity against Pseudomonas aeruginosa PAO1; assay type: functional, organism-based
Pseudomonas aeruginosa [47] = test: Downregulation of lasI mRNA expression level in Pseudomonas aeruginosa PAO1 at 200 uM by RT-PCR analysis relative to control; assay type: functional
Pseudomonas aeruginosa [48] = test: Downregulation of lasR mRNA expression level in Pseudomonas aeruginosa PAO1 at 200 uM by RT-PCR analysis relative to control; assay type: functional

O=C(CN1CCOCC1)Nc1cccc([N+](=O)[O-])c1
inhibition [1]: 45.1%
inhibition [2]: 75%
Activity (Pseudomonas aeruginosa [3]): 77%

Oc1ncnc2[nH]ncc12 [ALLOPURINOL]
MIC (Pseudomonas aeruginosa [4]): 2 µg/mL (≈ 14.7 µM)
Activity (Pseudomonas aeruginosa [5]): 70%
Activity (Pseudomonas aeruginosa [6]): 74%
Activity (Pseudomonas aeruginosa [7]): 74%

O=C/C=C/c1ccccc1
MIC (Pseudomonas aeruginosa [8]): 11.3 µM (≈ 1.5 µg/mL)
Activity (Pseudomonas aeruginosa [9]): 86%
Activity (Pseudomonas aeruginosa [10]): 99%
Activity (Pseudomonas aeruginosa [11]): 98.56%
Activity (Pseudomonas aeruginosa [12]): 28%
IC50 (Pseudomonas aeruginosa [13]): 2.29 µM
Activity (Pseudomonas aeruginosa [14]): 65%
Activity (Pseudomonas aeruginosa [15]): 70%

O=C1CCc2ccccc2O1 [DIHYDROCOUMARIN]
Activity (Pseudomonas aeruginosa [16]): 48.94%
Activity (Pseudomonas aeruginosa [17]): 87.25%
Activity (Pseudomonas aeruginosa [18]): 46.1%
Activity (Pseudomonas aeruginosa [19]): 36%

CCCCCCC/C=C\C(=O)O
Activity (Pseudomonas aeruginosa [20]): 8%
inhibition [21]: 44%

O=C(/C=C/c1ccc(O)c(O)c1)OCCc1ccc(Br)cc1
IC50 (Pseudomonas aeruginosa [22]): 20 µM
IC50 (Pseudomonas aeruginosa [23]): 20 µM
Activity (Pseudomonas aeruginosa [24]): 33.69%
IC50 [25]: 20 µM
IC50 (Pseudomonas aeruginosa [26]): 1.25 µM

[O-][S+](Cc1ccc(Cl)cc1)c1nnc(-c2ccccc2)o1 (centres undefined)
Activity (Pseudomonas aeruginosa [27]): 46.8%
IC50 [28]: 3.53 µM

c1cc2c(cc1[C@H]1OC[C@H]3[C@@H]1CO[C@@H]3c1ccc3c(c1)OCO3)OCO2 [SESAMIN]
Activity (Pseudomonas aeruginosa [29]): 92%
MIC (Pseudomonas aeruginosa [30]): 75 µg/mL (≈ 212 µM)
Activity (Pseudomonas aeruginosa [6]): 87%
Activity (Pseudomonas aeruginosa [7]): 51.31%

O=Cc1ccc2c(c1)OC(c1ccc(O)c(O)c1)O2 (centres undefined)
Activity (Pseudomonas aeruginosa [31]): 44.63%
inhibition [32]: 30%

COc1ccccc1N1CCN(c2ccnc(SCC(=O)Nc3c(C)cc(C)cc3C)n2)CC1
Activity (Pseudomonas aeruginosa [33]): 52.4%
MIC (Pseudomonas aeruginosa [34]): 500 µM (≈ 239 µg/mL)
Activity (Pseudomonas aeruginosa [35]): 62.46%
Activity (Pseudomonas aeruginosa [36]): 85%
Activity (Pseudomonas aeruginosa [6]): 76.56%
Activity (Pseudomonas aeruginosa [37]): 85%

C=C1CC(=O)N(c2ccc(Br)cc2)C1=O
IC50 [38]: 2.51 µM
IC50 (Pseudomonas aeruginosa [39]): 10 µM
Activity (Pseudomonas aeruginosa [40]): 78%
Activity (Pseudomonas aeruginosa [41]): 55%
IC50 [42]: 6.67 µM

O=C(O)c1ccccc1O [SALICYLIC ACID]
MIC (Pseudomonas aeruginosa [8]): 11.3 µM (≈ 1.57 µg/mL)
Activity (Pseudomonas aeruginosa [9]): 60%
Activity (Pseudomonas aeruginosa [10]): 70%
Activity (Pseudomonas aeruginosa [5]): 32%
Activity (Pseudomonas aeruginosa [11]): 78%
Activity (Pseudomonas aeruginosa [12]): 22%
IC50 (Pseudomonas aeruginosa [13]): 3.62 µM
Activity (Pseudomonas aeruginosa [14]): 31%
Activity (Pseudomonas aeruginosa [15]): 82%

C=C1CC(=O)N(CCCCCCCCCCCCCC)C1=O
IC50 [38]: 0.143 µM
Activity (Pseudomonas aeruginosa [40]): 75%
Activity (Pseudomonas aeruginosa [43]): 50%
Activity (Pseudomonas aeruginosa [41]): 55%
IC50 [42]: 0.61 µM

O=c1cc(-c2ccc(O)c(O)c2)oc2cc(O)cc(O)c12 [LUTEOLIN]
Activity (Pseudomonas aeruginosa [44]): 98%
Activity (Pseudomonas aeruginosa [45]): 98%
IC50 (Pseudomonas aeruginosa [46]): 50 µM
Activity (Pseudomonas aeruginosa [47]): 98%
Activity (Pseudomonas aeruginosa [48]): 98%

c1cc2c(cc1O[C@H]1OC[C@H]3[C@@H]1CO[C@@H]3c1ccc3c(c1)OCO3)OCO2 [SESAMOLIN]
Activity (Pseudomonas aeruginosa [29]): 97%
MIC (Pseudomonas aeruginosa [30]): 150 µg/mL (≈ 405 µM)
Activity (Pseudomonas aeruginosa [6]): 79%
Activity (Pseudomonas aeruginosa [7]): 42%
Activity (Pseudomonas aeruginosa [14]): 53.95%
